Laboratory results as given in patent US7632801B2, “Identification and use of antiviral compounds that inhibit interaction of host cell proteins and viral proteins required for viral replication” (Mount Sinai School of Medicine of New York University, priority 1995, dated 2009).

System: Influenza A/WSN/Virus
Format: cell-based

Substance: Ala Ser Gln Gly Thr Lys Arg Ser Tyr Glu Gln Met Glu Thr Asp Gly Glu Arg Gln (ASQGTKRSYEQMETDGERQ; listed as Homo sapiens) [NP-NLS oligopeptide, 19-amino acid NP-NLS oligopeptide corresponding to amino acids 2-20 of NP]
- inhibition of viral growth (hemagglutination titer): thousand-fold
